# Columns and labels:
# [1] = test system: cAMP-phosphodiesterase; details: cited from earlier work
# [2] = target: T1, pinoresinol/lariciresinol reductase (Forsythia intermedia, UniProt P93143); details: incubation with (±)-pinoresinols in presence of NADPH; cited from earlier work
# T1 construct: host or cells: E. coli, pSBETa vector
# T1 sequence (P93143 1-312): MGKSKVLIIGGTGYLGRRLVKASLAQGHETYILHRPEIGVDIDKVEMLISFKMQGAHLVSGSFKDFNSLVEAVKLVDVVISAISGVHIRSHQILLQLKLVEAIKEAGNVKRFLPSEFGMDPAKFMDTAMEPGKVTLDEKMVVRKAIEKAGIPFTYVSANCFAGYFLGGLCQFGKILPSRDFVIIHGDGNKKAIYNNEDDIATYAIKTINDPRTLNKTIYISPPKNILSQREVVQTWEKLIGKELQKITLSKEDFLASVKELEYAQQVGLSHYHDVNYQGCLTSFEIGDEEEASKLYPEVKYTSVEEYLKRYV
# [3] = target: HIV reverse transcriptase (Human immunodeficiency virus type 1 group M subtype B, UniProt P04585); details: cited from earlier work
# [4] = target: T2, secoisolariciresinol dehydrogenase (Forsythia intermedia, UniProt Q94KL7, F122L/G175A/I11F); test: Dehydrogenase activity of recombinant enzyme expressed in E. coli; format: biochemical; details: crude supernate of E. coli expressing DEHY133
# T2 construct: The dehydrogenase coding region was also excised using the Nde I sites at the 5′ and 3′ ends and cloned into the SBET vector; made in house; host or cells: E. coli B834(DE3), SBET vector
# Procedure: (§1) Secoisolarciresinol dehydrogenase activity was assayed by monitoring the formation of (−)-[9′-^3H2]matairesinol. Each assay consisted of NAD (50 mM in 0.1 M potassium phosphate buffer, pH 7, 5 μl), (±)-[9,9′-^3H2]secoisolariciresinols (28 nM, 130 MBq/mmol in ethanol, 5 μl) and buffer (50 mM Tris-HCl, pH 8.8, 470 μl ). The enzymatic reaction was initiated by addition of the enzyme preparation (20 μl). After 1 h incubation at 30° C. with shaking, the mixture was extracted with EtOAc (500 μl ×2) containing unlabelled (±)-matairesinols (200 μg) as radiochemical carriers. After centrifugation (13,800×g, 5 min) the EtOAc solubles were removed, evaporated to dryness in vacuo, reconstituted in MeOH:3% acetic acid in H2O (1:1, 200 μl), and an aliquot (20 μl) subjected to reversed-phase column chromatography. The elution conditions were as follows: linear gradient acetonitrile/3% acetic acid in H2O from 10:90 to 30:70 between 0 and 35 min; then to 5:95 in 5 min and finally isocratic at 5:95 for 5 min, at a flow rate of 1 ml min^−1, and detection at 280 nm. Fractions corresponding to matairesinol were individually collected, aliquots removed for liquid scintillation counting, and the remainder freeze-dried.
# (§2) [9′-^3H2]Matairesinol (0.5 kBq), collected after reversed-phase column chromatography, was reduced with LiAlH4 to give [9′-^3H2]secoisolariciresinol (0.26 kBq).
# (§3) The E. coli culture containing the dehydrogenase clone was grown at 37° C. in 25 ml of SOC Kn50 medium to an O.D. of 0.5. To this was added IPTG to give a final concentration of 0.5 mM and the culture was grown at 18° C. for an additional 20 h. The cells were pelleted at 600×g 4° C. 12 min, resuspended in 5 ml of 20 mM Tris-HCl pH 8.0, 5 mM DTT buffer and repelleted. The final bacterial pellet was resuspended in 200 μL of the above buffer and sonicated 4×15 sec using a Braun-Sonic 2000 sonicator set at maximal output of −0.64. The sample was then centrifuged 20,800 ×g 4° C. 15 min and the crude supernate was assayed for dehydrogenase activity. […] The clone SMDEHY631 (SEQ ID NO:9) was also expressed in E. coli in the foregoing manner.
# [5] = test system: HIV-1; details: cited from earlier work
# [6] = target: T3, secoisolariciresinol dehydrogenase (Forsythia intermedia, UniProt Q94KL7); test: Dehydrogenase activity of recombinant enzyme expressed in E. coli; format: biochemical; details: protein produced in E. coli
# T3 construct: The dehydrogenase coding region was also excised using the Nde I sites at the 5′ and 3′ ends and cloned into the SBET vector; made in house; host or cells: E. coli B834(DE3), SBET vector
# Procedure: as §1, §2, §3
molecule,measurement,setting,value
COc1cc(C[C@H]2COC(=O)[C@@H]2Cc2ccc(O)c(OC)c2)ccc1O [matairesinol],inhibition of cAMP-phosphodiesterase,[1],inhibit
(−)-pinoresinol,served as substrate of recombinant pinoresinol/lariciresinol reductase,[2],not
COc1cc(C[C@H]2C(=O)OC[C@@H]2Cc2ccc(OC)c(OC)c2)ccc1O [(−)-arctigenin],effectiveness against HIV due to reverse transcriptase inhibitory activity,[3],effective against HIV
(+)-secoisolariciresinol [(+)-antipode of secoisolariciresinol],conversion as substrate into (−)-lactol and (−)-matairesinol,[4],did not serve as a substrate
"COc1cc(C2OCC3C(c4ccc(O)c(OC)c4)OCC23)ccc1O (single isomer, unassigned; (+)) [(+)-pinoresinol]",served as substrate of recombinant pinoresinol/lariciresinol reductase,[2],served as substrates
CC(Cc1ccc(O)c(O)c1)C(C)Cc1ccc(O)c(O)c1 (stereo not shown) [nordihydroguaiaretic acid],effectiveness against HIV due to reverse transcriptase inhibitory activity,[3],effective against HIV
COc1cc(C[C@H]2CO[C@H](c3ccc(O)c(OC)c3)[C@H]2CO)ccc1O [(+)-lariciresinol],served as substrate of recombinant pinoresinol/lariciresinol reductase,[2],served as substrates
(−)-secoisolariciresinol,conversion as substrate into (−)-lactol and (−)-matairesinol,[4],catalyzed the conversion
(−)-trachelogenin,inhibition of in vitro replication of HIV-1,[5],inhibits
same,effectiveness against HIV due to reverse transcriptase inhibitory activity,[3],effective against HIV
"SMDEHY133: protein (SEQ ID NO:2) encoded by engineered cDNA clone DEHY133 (SEQ ID NO:1) (protein, Forsythia x intermedia) MQLRTAFARRLEGKVALITGGASGIGETTAKLFSQHGAKVAIADVQDELGHSVVEAIGTSNSTYIHCDVTNEDGVKNAVDNTVSTYGKLDIMFSNAGISDPNRPRIIDNEKADFERVLSVNVTGVFLCMKHAARVMIPARSGNIISTASLSSTMGGGSSHAYCGSKHAVLALTRNLAVELGQFGIRVNCLSPFGLPTALGKKFSGIKNEEEFENVINFAGNLKGPKFNVEDVANAALYLASDEAKYVSGHNLFIDGGFSVCNSVIKVFQYPDS",catalysis of conversion of (−)-secoisolariciresinol into (−)-matairesinol by protein of the clone,[6],catalyzed the stereochemical conversion
"SMDEHY631: protein (SEQ ID NO:10) encoded by cDNA clone SEQ ID NO:9 (protein, Forsythia x intermedia) MATSQLRTAFARRLEGKVALITGGASGVGEVTAKLFSQHGAKVAIADVQDELGHSVVEAIGLSNSTYIHCDVTNEDGVKNAVDNTVSTYGKLDIMFNNAGISDPYKPRVIDNEKADFERVLSVNVTGVFLFMKHAARIMVPARSGCIISTASLSSTMGGGSSHAYCGSKHAVLGLTRNLAVELGQFGIRVNCLSPFGLPTPLAKKFTGIENDEDLANGIERAGNLKGTKLRIEDVANAALFLASDEAQYVSGQNLFIDGGFSVCNSAIKLFQYPDS",catalysis of conversion of (−)-secoisolariciresinol into (−)-matairesinol by protein of the clone,[6],catalyzed the stereochemical conversion
"SMDEHY321: protein (SEQ ID NO:4) encoded by cDNA clone SEQ ID NO:3 (protein, Forsythia x intermedia) MAATSQVLTAIARRLEGKVALITGGASGIGETTAKLFSQHGAKVAIADVQDELGHSVVEAIGTSNSTYIHCDVTNEDGVKNAVDNTVSTYGKLDIMFSNAGISDPNRPRIIDNEKADFERVFSVNVTGVFLCMKHAARVMIPARSGNIISTASLSSTMGGGSSHAYCGSKHAVLGLTRNLAVELGQFGIRVNCLSPFGLPTALGKKFSGIKNEEEFENVINFAGNLKGPKFNVEDVANAALYLASDEAKYVSGHNLFIDGGFSVCNSVIKVFQYPDS",catalysis of conversion of (−)-secoisolariciresinol into (−)-matairesinol by protein of the clone,[6],catalyzed the stereochemical conversion
